Patent publication US9695155B2, “Herbicidal substituted pyrimidinyloxy benzene compounds” (E. I. DU PONT DE NEMOURS AND COMPANY, priority 2013, dated 2017)

Tests used:
Test in all cases: Test E preemergence
palmer pigweed = format: in vivo, Amaranthus palmeri; details: for Pigweed, Palmer plant response rating: scale 0 to 100 (0 no effect, 100 complete control); for Plant response rating, Pigweed, Palmer: scale 0 to 100, 0 no effect, 100 complete control
Description: Seeds of plant species selected from corn (Zea mays), soybean (Glycine max), velvetleaf (Abutilon theophrasti), lambsquarters (Chenopodium album), wild poinsettia (Euphorbia heterophylla), palmer pigweed (Amaranthus palmeri), waterhemp (common waterhemp, Amaranthus rudis), surinam grass (Brachiaria decumbens), large (Lg) crabgrass (Digitaria sanguinalis), Brazilian crabgrass (Digitaria horizontalis), fall panicum (Panicum dichotomiflorum), giant foxtail (Setaria faberii), green foxtail (Setaria viridis), goosegrass (Eleusine indica), johnsongrass (Sorghum halepense), ragweed (common ragweed, Ambrosia elatior), barnyardgrass (Echinochloa crus-galli), sandbur (southern sandbur, Cenchrus echinatus), arrowleaf sida (Sida rhombifolia), Italian ryegrass (Lolium multiflorum), dayflower (Virginia (VA) dayflower, Commelina virginica), field bindweed (Convolvulus arvensis), morningglory (Ipomoea coccinea), nightshade (eastern black nightshade, Solanum ptycanthum), kochia (Kochia scoparia), yellow nutsedge (Cyperus esculentus), cocklebur (common cocklebur, Xanthium strumarium), smartweed (ladysthumb smartweed, and hairy beggarticks (Bidens pilosa), were planted into a silt loam soil and treated preemergence with test chemicals formulated in a non-phytotoxic solvent mixture which included a surfactant.
At the same time, plants from these crop and weed species and also horseweed (Canada horseweed, Conyza canadensis), waterhemp_RES1, (ALS & Triazine resistant common waterhemp, Amaranthus rudis), and waterhemp_RES2, (ALS & HPPD resistant common waterhemp, Amaranthus rudis) were planted in pots containing Redi-Earth® planting medium (Scotts Company, 14111 Scottslawn Road, Marysville, Ohio 43041) comprising spaghnum peat moss, vermiculite, wetting agent and starter nutrients were treated with postemergence applications of test chemicals formulated in the same manner. Plants ranged in height from 2 to 18 cm for postemergence treatments (1- to 4-leaf stage). Treated plants and controls were maintained in a greenhouse for 14 to 21 days, after which time all species were compared to controls and visually evaluated. Plant response ratings, summarized in Table E, are based on a scale of 0 to 100 where 0 is no effect and 100 is complete control. A dash (-) response means no test result.

wild poinsettia = format: in vivo, Euphorbia heterophylla; details: for Poinsettia, Wild plant response rating: scale 0 to 100 (0 no effect, 100 complete control); for Plant response rating, Poinsettia, Wild: scale 0 to 100, 0 no effect, 100 complete control
Method in brief: (§1)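 Compound in a non-phytotoxic solvent mixture with surfactant was applied preemergence to seeds in silt loam soil, or postemergence to plants 2 to 18 cm tall grown in peat-based potting medium. Plants were kept in a greenhouse for 14 to 21 days, then rated visually against untreated controls on a 0 (no effect) to 100 (complete control) scale.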

kochia = format: in vivo, Kochia scoparia; details: for Kochia plant response rating: scale 0 to 100 (0 no effect, 100 complete control); for Plant response rating, Kochia: scale 0 to 100, 0 no effect, 100 complete control
Method in brief: as §1

fall panicum = format: in vivo, Panicum dichotomiflorum; details: for Panicum, Fall plant response rating: scale 0 to 100 (0 no effect, 100 complete control); for Plant response rating, Panicum, Fall: scale 0 to 100, 0 no effect, 100 complete control
Method in brief: as §1

nightshade = format: in vivo, Solanum ptycanthum; details: for Nightshade plant response rating: scale 0 to 100 (0 no effect, 100 complete control); for Plant response rating, Nightshade: scale 0 to 100, 0 no effect, 100 complete control
Method in brief: as §1

surinam grass = format: in vivo, Brachiaria decumbens; details: for Surinam Grass plant response rating: scale 0 to 100 (0 no effect, 100 complete control); for Plant response rating, Surinam Grass: scale 0 to 100, 0 no effect, 100 complete control
Method in brief: as §1

hairy beggarticks = format: in vivo, Bidens pilosa; details: for Beggarticks plant response rating: scale 0 to 100 (0 no effect, 100 complete control); for Plant response rating, Beggarticks: scale 0 to 100, 0 no effect, 100 complete control
Method in brief: as §1

ragweed = format: in vivo, Ambrosia elatior; details: for Ragweed plant response rating: scale 0 to 100 (0 no effect, 100 complete control); for Plant response rating, Ragweed: scale 0 to 100, 0 no effect, 100 complete control
Method in brief: as §1

sandbur = format: in vivo, Cenchrus echinatus; details: for Sandbur plant response rating: scale 0 to 100 (0 no effect, 100 complete control); for Plant response rating, Sandbur: scale 0 to 100, 0 no effect, 100 complete control
Method in brief: as §1

waterhemp = format: in vivo, Amaranthus rudis; details: for Waterhemp plant response rating: scale 0 to 100 (0 no effect, 100 complete control); for Plant response rating, Waterhemp: scale 0 to 100, 0 no effect, 100 complete control
Method in brief: as §1

Brazilian crabgrass = format: in vivo, Digitaria horizontalis; details: for Crabgrass, Brazil plant response rating: scale 0 to 100 (0 no effect, 100 complete control); for Plant response rating, Crabgrass, Brazil: scale 0 to 100, 0 no effect, 100 complete control
Method in brief: as §1

velvetleaf = format: in vivo, Abutilon theophrasti; details: for Velvetleaf plant response rating: scale 0 to 100 (0 no effect, 100 complete control); for Plant response rating, Velvetleaf: scale 0 to 100, 0 no effect, 100 complete control
Method in brief: as §1

green foxtail = format: in vivo, Setaria viridis; details: for Foxtail, Green plant response rating: scale 0 to 100 (0 no effect, 100 complete control); for Plant response rating, Foxtail, Green: scale 0 to 100, 0 no effect, 100 complete control
Method in brief: as §1

soybean = format: in vivo, Glycine max; details: for Soybean plant response rating: scale 0 to 100 (0 no effect, 100 complete control); for Plant response rating, Soybean: scale 0 to 100, 0 no effect, 100 complete control
Method in brief: as §1

N#Cc1cccc(Oc2ncc(Cl)cn2)c1-n1cc(C(F)(F)F)cn1 [Compound 58, 3-[(5-chloro-2-pyrimidinyl)oxy]-2-[4-(trifluoromethyl)-1H-pyrazol-1-yl]benzonitrile]
Pigweed, Palmer plant response rating (palmer pigweed; 16 g ai/ha): 100 | Pigweed, Palmer plant response rating (palmer pigweed; 31 g ai/ha): 100 | Pigweed, Palmer plant response rating (palmer pigweed; 62 g ai/ha): 100 | Plant response rating, Pigweed, Palmer (palmer pigweed; 125 g ai/ha): 100 | Plant response rating, Pigweed, Palmer (palmer pigweed; 250 g ai/ha): 100 | Poinsettia, Wild plant response rating (wild poinsettia; 16 g ai/ha): 5 | Poinsettia, Wild plant response rating (wild poinsettia; 31 g ai/ha): 15 | Poinsettia, Wild plant response rating (wild poinsettia; 62 g ai/ha): 90 | Plant response rating, Poinsettia, Wild (wild poinsettia; 125 g ai/ha): 100 | Plant response rating, Poinsettia, Wild (wild poinsettia; 250 g ai/ha): 100 | Kochia plant response rating (kochia; 16 g ai/ha): 35 | Kochia plant response rating (kochia; 31 g ai/ha): 100 | Kochia plant response rating (kochia; 62 g ai/ha): 100 | Plant response rating, Kochia (kochia; 125 g ai/ha): 100 | Plant response rating, Kochia (kochia; 250 g ai/ha): 100 | Panicum, Fall plant response rating (fall panicum; 16 g ai/ha): 95 | Panicum, Fall plant response rating (fall panicum; 31 g ai/ha): 98 | Panicum, Fall plant response rating (fall panicum; 62 g ai/ha): 100 | Plant response rating, Panicum, Fall (fall panicum; 125 g ai/ha): 100 | Plant response rating, Panicum, Fall (fall panicum; 250 g ai/ha): 100 | Nightshade plant response rating (nightshade; 16 g ai/ha): 90 | Nightshade plant response rating (nightshade; 31 g ai/ha): 98 | Nightshade plant response rating (nightshade; 62 g ai/ha): 100 | Plant response rating, Nightshade (nightshade; 125 g ai/ha): 100 | Plant response rating, Nightshade (nightshade; 250 g ai/ha): 100 | Surinam Grass plant response rating (surinam grass; 16 g ai/ha): 0 | Surinam Grass plant response rating (surinam grass; 31 g ai/ha): 0 | Surinam Grass plant response rating (surinam grass; 62 g ai/ha): 25 | Plant response rating, Surinam Grass (surinam grass; 125 g ai/ha): 65 | Plant response rating, Surinam Grass (surinam grass; 250 g ai/ha): 90 | Beggarticks plant response rating (hairy beggarticks; 16 g ai/ha, preemergence): 0 | Beggarticks plant response rating (hairy beggarticks; 31 g ai/ha, preemergence): 0 | Plant response rating, Beggarticks (hairy beggarticks; Preemergence, 62 g ai/ha): 0 | Plant response rating, Beggarticks (hairy beggarticks; preemergence, 125 g ai/ha): 15 | Plant response rating, Beggarticks (hairy beggarticks; preemergence, 250 g ai/ha): 100 | Ragweed plant response rating (ragweed; 16 g ai/ha): 0 | Ragweed plant response rating (ragweed; 31 g ai/ha): 0 | Ragweed plant response rating (ragweed; 62 g ai/ha): 5 | Plant response rating, Ragweed (ragweed; 125 g ai/ha): 50 | Plant response rating, Ragweed (ragweed; 250 g ai/ha): 85 | Sandbur plant response rating (sandbur; 16 g ai/ha): 0 | Sandbur plant response rating (sandbur; 31 g ai/ha): 20 | Sandbur plant response rating (sandbur; 62 g ai/ha): 75 | Plant response rating, Sandbur (sandbur; 125 g ai/ha): 90 | Plant response rating, Sandbur (sandbur; 250 g ai/ha): 95 | Waterhemp plant response rating (waterhemp; 16 g ai/ha): 98 | Waterhemp plant response rating (waterhemp; 31 g ai/ha): 100 | Waterhemp plant response rating (waterhemp; 62 g ai/ha): 100 | Plant response rating, Waterhemp (waterhemp; 125 g ai/ha): 100 | Plant response rating, Waterhemp (waterhemp; 250 g ai/ha): 100 | Crabgrass, Brazil plant response rating (Brazilian crabgrass; 16 g ai/ha): 100 | Crabgrass, Brazil plant response rating (Brazilian crabgrass; 31 g ai/ha): 100 | Crabgrass, Brazil plant response rating (Brazilian crabgrass; 62 g ai/ha): 100 | Plant response rating, Crabgrass, Brazil (Brazilian crabgrass; 125 g ai/ha): 100 | Plant response rating, Crabgrass, Brazil (Brazilian crabgrass; 250 g ai/ha): 100 | Velvetleaf plant response rating (velvetleaf; 16 g ai/ha): 40 | Velvetleaf plant response rating (velvetleaf; 31 g ai/ha): 70 | Velvetleaf plant response rating (velvetleaf; 62 g ai/ha): 90 | Plant response rating, Velvetleaf (velvetleaf; 125 g ai/ha): 100 | Plant response rating, Velvetleaf (velvetleaf; 250 g ai/ha): 100 | Foxtail, Green plant response rating (green foxtail; 16 g ai/ha): 65 | Foxtail, Green plant response rating (green foxtail; 31 g ai/ha): 95 | Foxtail, Green plant response rating (green foxtail; 62 g ai/ha): 100 | Plant response rating, Foxtail, Green (green foxtail; 125 g ai/ha): 100 | Plant response rating, Foxtail, Green (green foxtail; 250 g ai/ha): 100 | Soybean plant response rating (soybean; 16 g ai/ha): 0 | Soybean plant response rating (soybean; 31 g ai/ha): 0 | Soybean plant response rating (soybean; 62 g ai/ha): 60 | Plant response rating, Soybean (soybean; 125 g ai/ha): 75 | Plant response rating, Soybean (soybean; 250 g ai/ha): 95
